From ChEMBL document CHEMBL1201862, “PubChem BioAssay data set” (2004)
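Dose response: 5 concentrations. Exposure: 48 h. Format: 96-well plates. Endpoint: linear interpolation; highest concentration if not reached. At the GI50, growth is halved.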 Activity calls are given as the source filed them. Rule as the data show it: active = GI50 up to about 1.1 µM and inactive = higher.

Key:
Experiment in all cases: inhibition of tumour cell growth, NCI panel, 48 h
786-0 = test system: 786-0
UACC-257 = test system: UACC-257
HL-60 = test system: HL-60
SK-OV-3 = test system: SK-OV-3
NCI-H226 = test system: NCI-H226
LOX IMVI = test system: LOX IMVI
EKVX = test system: EKVX
SF-539 = test system: SF-539
Malme-3M = test system: Malme-3M
SF-268 = test system: SF-268
UO-31 = test system: UO-31
A549 = test system: A549
RXF 393 = test system: RXF 393
RPMI-8226 = test system: RPMI-8226
NCI-H522 = test system: NCI-H522

Measured: GI50

Cc1ccc(NC(=O)CCC(=O)C2CC(=O)CCC2=O)cc1C (stereo not given)
inactive: 786-0 > 100 µM | UACC-257 > 100 µM | HL-60 > 100 µM | SK-OV-3 > 100 µM | NCI-H226 > 100 µM | LOX IMVI > 100 µM | EKVX > 100 µM | SF-539 > 100 µM | Malme-3M > 100 µM | SF-268 > 100 µM | UO-31 > 100 µM | A549 > 100 µM | RXF 393 > 100 µM

FC(F)(F)c1nc(Br)[nH]c1C(F)(F)F
inactive: 786-0 > 100 µM | UACC-257 > 100 µM | HL-60 > 100 µM | SK-OV-3 > 100 µM | NCI-H226 51.9 µM | LOX IMVI > 100 µM | EKVX > 100 µM | SF-539 > 100 µM | Malme-3M > 100 µM | SF-268 > 100 µM | RPMI-8226 51.3 µM | UO-31 > 100 µM | A549 > 100 µM | RXF 393 73.5 µM

CC(C)C(NCc1c2ccccc2[n+]([O-])c2ccccc12)C(=O)O (stereo not given)
inactive: 786-0 54.7 µM | UACC-257 > 100 µM | HL-60 30.3 µM | SK-OV-3 > 100 µM | NCI-H226 35.4 µM | NCI-H522 34.5 µM | LOX IMVI 33.8 µM | EKVX > 100 µM | Malme-3M 92.7 µM | SF-268 32.2 µM | RPMI-8226 28.2 µM | UO-31 26.7 µM | A549 > 100 µM

COc1ccccc1OCc1nnc(SCC(=O)O)n1-c1ccccc1
inactive: 786-0 > 100 µM | UACC-257 > 100 µM | HL-60 > 100 µM | SK-OV-3 > 100 µM | NCI-H226 > 100 µM | NCI-H522 > 100 µM | LOX IMVI > 100 µM | EKVX > 100 µM | SF-539 > 100 µM | Malme-3M > 100 µM | SF-268 > 100 µM | RPMI-8226 > 100 µM | UO-31 > 100 µM | A549 > 100 µM

CC(=O)O[C@H]1CC[C@@]2(C)C(=CC[C@@H]3C2CC[C@]2(C)Nc4oncc4CC32)C1 (stereo not given in full)
inactive: 786-0 > 100 µM | UACC-257 31.7 µM | HL-60 11.7 µM | SK-OV-3 96.6 µM | NCI-H226 15 µM | EKVX > 100 µM | SF-539 44.9 µM | Malme-3M 25.3 µM | RPMI-8226 16.9 µM | UO-31 18.3 µM | A549 28.4 µM | RXF 393 38.8 µM

Cn1cc2ccccc2c1-c1nc(F)nc(Oc2ccc3c(c2)CC[C@@H]2C3CC[C@@]3(C)C2C[C@H](O)[C@@H]3O)n1 (stereo not given in full)
inactive: 786-0 16.4 µM | UACC-257 23.5 µM | HL-60 22.4 µM | SK-OV-3 21.9 µM | NCI-H522 11.8 µM | EKVX 17.7 µM | SF-539 13.5 µM | Malme-3M 24.8 µM | SF-268 13.1 µM | RPMI-8226 16.7 µM | UO-31 16.4 µM | A549 18.6 µM | RXF 393 19.4 µM

CN/N=C(/CC(=O)c1sc(NNC(C)=O)nc1C)C(=O)Nc1ccc(OC)cc1OC
inactive: 786-0 > 100 µM | UACC-257 > 100 µM | HL-60 > 100 µM | NCI-H226 > 100 µM | NCI-H522 > 100 µM | LOX IMVI > 100 µM | EKVX 59.7 µM | SF-539 > 100 µM | Malme-3M > 100 µM | SF-268 > 100 µM | RPMI-8226 > 100 µM | UO-31 > 100 µM | A549 > 100 µM

O=C(O)/C(=C/C=C/c1ccccc1)c1csc(-c2nc(/C(=C\C=C\c3ccccc3)C(=O)O)cs2)n1
inactive: 786-0 23.2 µM | UACC-257 34.9 µM | HL-60 17.5 µM | SK-OV-3 57.3 µM | LOX IMVI 29.5 µM | EKVX > 100 µM | SF-539 21.2 µM | Malme-3M 27.2 µM | SF-268 30.7 µM | RPMI-8226 22.7 µM | UO-31 18.5 µM | A549 43.8 µM | RXF 393 25.2 µM

COC(=O)[C@H]1C2CC[C@@H]3C45C[C@@H](c6ccoc6)O[C@@H]4O[C@@H](O2)C31CCC5C (stereo not given in full)
inactive: 786-0 91.2 µM | UACC-257 > 100 µM | HL-60 > 100 µM | SK-OV-3 > 100 µM | NCI-H226 76.7 µM | NCI-H522 91.6 µM | LOX IMVI > 100 µM | EKVX 92.3 µM | SF-539 > 100 µM | Malme-3M > 100 µM | SF-268 > 100 µM | RPMI-8226 > 100 µM | UO-31 68.5 µM | A549 > 100 µM

Clc1ccc(CNc2nc3ccccc3nc2-c2cccs2)c(Cl)c1
inactive: 786-0 > 100 µM | UACC-257 > 100 µM | HL-60 21.9 µM | NCI-H226 > 100 µM | EKVX > 100 µM | SF-539 > 100 µM | Malme-3M > 100 µM | SF-268 > 100 µM | RPMI-8226 56.1 µM | UO-31 > 100 µM | A549 97.3 µM | RXF 393 73.8 µM

C/C(COc1ccccc1)=N\NC(N)=S
inactive: 786-0 > 100 µM | UACC-257 > 100 µM | HL-60 > 100 µM | SK-OV-3 > 100 µM | NCI-H226 > 100 µM | LOX IMVI > 100 µM | EKVX > 100 µM | SF-539 90.4 µM | Malme-3M > 100 µM | SF-268 > 100 µM | RPMI-8226 > 100 µM | UO-31 > 100 µM | A549 > 100 µM | RXF 393 > 100 µM
